Assay results as given in patent US20150031668A1, “CHROMAN DERIVATIVES AS TRPM8 INHIBITORS” (AMGEN INC., priority 2013, published 2015).
Where a name gives a salt, the structure may show the parent alone.

Biological target: T1, human TRPM8 (Homo sapiens, UniProt Q7Z2W7)
T1 construct: expressed in transfected cells; host or cells: Chinese hamster ovary (CHO) cells, T-REx tetracycline-inducible expression system (Invitrogen); co-transfected with pcDNA3.1 aequorin
Assay: Luminescence readout assay for measuring intracellular calcium (aequorin, CHO cells expressing human TRPM8; icilin, L-menthol or cold activation)
Format: cell-based
Settings: CHO cells expressing human TRPM8, icilin activation (1 μM), aequorin luminescence; read-out: hTRPM8 IC50
Method in brief: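 Activation was by 1 μM icilin, 100 μM L-menthol (test compound 2.5 min ahead) or cold buffer below 10° C (compound 1 min ahead). Calcium rise measured as aequorin luminescence in CHO cells with tetracycline-inducible human TRPM8.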

T1 sequence (Q7Z2W7 whole entry): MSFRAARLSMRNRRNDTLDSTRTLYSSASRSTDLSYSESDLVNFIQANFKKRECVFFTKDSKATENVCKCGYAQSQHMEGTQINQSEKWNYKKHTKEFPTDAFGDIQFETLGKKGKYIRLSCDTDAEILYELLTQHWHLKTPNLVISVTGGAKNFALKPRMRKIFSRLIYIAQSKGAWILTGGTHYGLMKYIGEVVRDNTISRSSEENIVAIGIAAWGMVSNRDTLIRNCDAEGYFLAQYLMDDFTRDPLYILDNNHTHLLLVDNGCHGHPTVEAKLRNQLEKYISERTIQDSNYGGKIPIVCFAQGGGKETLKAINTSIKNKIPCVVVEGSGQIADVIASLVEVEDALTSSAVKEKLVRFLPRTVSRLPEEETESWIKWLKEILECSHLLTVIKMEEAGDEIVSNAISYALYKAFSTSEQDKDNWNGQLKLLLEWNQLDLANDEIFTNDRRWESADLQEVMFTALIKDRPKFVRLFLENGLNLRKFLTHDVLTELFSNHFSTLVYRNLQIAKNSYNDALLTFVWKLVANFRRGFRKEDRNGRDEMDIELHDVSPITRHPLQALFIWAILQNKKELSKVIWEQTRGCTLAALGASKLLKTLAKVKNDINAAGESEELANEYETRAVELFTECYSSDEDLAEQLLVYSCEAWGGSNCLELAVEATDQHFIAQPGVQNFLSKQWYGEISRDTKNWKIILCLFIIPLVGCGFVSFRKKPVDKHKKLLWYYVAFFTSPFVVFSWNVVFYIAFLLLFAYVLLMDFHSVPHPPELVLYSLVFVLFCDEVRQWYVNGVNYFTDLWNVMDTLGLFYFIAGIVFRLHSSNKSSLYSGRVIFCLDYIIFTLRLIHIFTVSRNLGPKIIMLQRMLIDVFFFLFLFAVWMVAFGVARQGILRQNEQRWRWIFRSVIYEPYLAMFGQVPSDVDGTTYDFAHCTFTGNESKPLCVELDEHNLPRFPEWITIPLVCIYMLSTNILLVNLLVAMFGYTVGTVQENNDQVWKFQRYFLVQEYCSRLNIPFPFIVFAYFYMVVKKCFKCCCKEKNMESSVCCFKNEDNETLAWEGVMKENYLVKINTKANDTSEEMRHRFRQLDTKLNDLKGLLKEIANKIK

Row | IC50 [nM] | SMILES
1 | 336 | O=C(N[C@]1(c2ccc(OC(F)(F)F)cc2)CCOc2cccnc21)c1cc[nH]n1 [Example 211, (S)-N-(4-(4-(trifluoromethoxy)phenyl)-3,4-dihydro-2H-pyrano[3,2-b]pyridin-4-yl)-1H-pyrazole-3-carboxamide formate]
2 | 46 | O=C(N[C@]1(c2ccc(OC(F)(F)F)cc2)CCOc2cccnc21)c1c[nH]c2ncccc12 [Example 217, (S)-N-(4-(4-(trifluoromethoxy)phenyl)-3,4-dihydro-2H-pyrano[3,2-b]pyridin-4-yl)-1H-pyrrolo[2,3-b] pyridine-3-carboxamide fonnate]
3 | 106 | COC(=O)C1CCN(C(=O)N[C@]2(c3ccc(OC(F)(F)F)c(F)c3)CCOc3cccnc32)CC1 [Example 99, (S)-methyl 1-((4-(3-fluoro-4-(trifluoromethoxy)phenyl)-3,4-dihydro-2H-pyrano[3,2-b]pyridin-4-yl)carbamoyl)piperidine-4-carboxylate]
4 | 7 | O=C(N[C@]1(c2ccc(C(F)(F)F)cc2)CCOc2cccnc21)c1ccc(O)cn1 [Example 40, (S)-5-hydroxy-N-(4-(4-(trifluoromethyl)phenyl)-3,4-dihydro-2H-pyrano[3,2-b]pyridin-4-yl)picolinamide]
5 | 501 | O=C(N[C@]1(c2ccc(-c3ccccc3CO)cc2)CCOc2cccnc21)c1ccc(F)cc1 [Example 128, (S)-4-fluoro-N-(4-(2′-(hydroxymethyl)-[1,1′-biphenyl]-4-yl)-3,4-dihydro-2H-pyrano[3,2-b]pyridin-4-yl)benzamide]
6 | 784 | O=C(NC1(c2ccc(C(F)(F)F)cc2)CCCc2cccnc21)c1ccc(=O)[nH]c1 (centres unmarked) [Example 31, 6-oxo-N-(8-(4-(trifluoromethyl)phenyl)-5,6,7,8-tetrahydroquinolin-8-yl)-1,6-dihydropyridine-3-carboxamide]
7 | 266 | COC(=O)c1ccc(NC(=O)N[C@]2(c3ccc(OC(F)(F)F)c(F)c3)CCOc3cccnc32)nc1 [Example 84, (S)-methyl 6-(3-(4-(3-fluoro-4-(trifluoromethoxy)phenyl)-3,4-dihydro-2H-pyrano[3,2-b]pyridin-4-yl)ureido)nicotinate]
8 | 46 | O=C(N[C@]1(c2ccc(OC(F)(F)F)c(F)c2)CCOc2cccnc21)c1ccc(C(O)C(F)(F)F)cc1 (mixture of isomers) [Example 159, N—((S)-4-(3-fluoro-4-(trifluoromethoxy)phenyl)-3,4-dihydro-2H-pyrano[3,2-b]pyridin-4-yl)-4-((R)-2,2,2-trifluoro-1-hydroxyethyl)benzamide and N—((S)-4-(3-fluoro-4-(trifluoromethoxy)phenyl)-3,4-dihydro-2H-pyrano[3,2-b]pyridin-4-yl)-4-((S)-2,2,2-trifluoro-1-hydroxyethyl)benzamide (1:1)]
9 | 162 | Cc1ccc([C@@]2(NC(=O)c3ccccc3)CCOc3cccnc32)cc1 (single isomer, unassigned) [Example 18]
10 | 66 | COc1c(C(=O)O)cccc1C(=O)N[C@]1(c2ccc(OC(F)(F)F)c(F)c2)CCOc2cccnc21 [Example 186, (S)-3-((4-(3-fluoro-4-(trifluoromethoxy)phenyl)-3,4-dihydro-2H-pyrano[3,2-b]pyridin-4-yl)carbamoyl)-2-methoxybenzoic acid]
11 | 1920 | CS(=O)(=O)c1ccccc1-c1ccc([C@@]2(NC(=O)c3ccc(F)cc3)CCOc3cccnc32)cc1 [Example 144, (S)-4-fluoro-N-(4-(2′-(methylsulfonyl)-[1,1′-biphenyl]-4-yl)-3,4-dihydro-2H-pyrano[3,2-b]pyridin-4-yl)benzamide]
12 | 66.5 | O=C(N[C@]1(c2ccc(OC(F)(F)F)cc2)CCOc2cccnc21)c1cc2ccccc2o1 [Example 236, (S)-N-(4-(4-(trifluoromethoxy)phenyl)-3,4-dihydro-2H-pyrano[3,2-b]pyridin-4-yl)benzofuran-2-carboxamide formate]
13 | 15 | COC(=O)c1ccc(C(=O)N[C@]2(c3ccc(OC(F)(F)F)c(F)c3)CCOc3cccnc32)cc1N [Example 188, (S)-methyl 2-amino-4-((4-(3-fluoro-4-(trifluoromethoxy)phenyl)-3,4-dihydro-2H-pyrano[3,2-b]pyridin-4-yl)carbamoyl) benzoate]
14 | 89 | COc1ccc(C(=O)O)cc1C(=O)N[C@]1(c2ccc(OC(F)(F)F)c(F)c2)CCOc2cccnc21 [Example 316, (S)-3-((4-(3-fluoro-4-(trifluoro-methoxy)phenyl)-3,4-dihydro-2H-pyrano[3,2-b]pyridin-4-yl)carbamoyl)-4-methoxybenzoic acid]
15 | 1660 | O=C(N[C@]1(c2ccc(C(F)(F)F)cc2)CCOc2ccccc21)c1ccccc1 (single isomer, unassigned) [Example 28]
16 | 8 | CC(=O)c1ccc(C(=O)N[C@]2(c3ccc(OC(F)(F)F)c(F)c3)CCOc3cccnc32)cc1 [Example 156, (S)-4-acetyl-N-(4-(3-fluoro-4-(trifluoromethoxy)phenyl)-3,4-dihydro-2H-pyrano[3,2-b]pyridin-4-yl)benzamide]
17 | 12 | CS(=O)(=O)Nc1ccc(C(=O)N[C@]2(c3ccc(OC(F)(F)F)c(F)c3)CCOc3cccnc32)nc1 [Example 65, (S)—N-(4-(3-fluoro-4-(trifluoromethoxy)phenyl)-3,4-dihydro-2H-pyrano[3,2-b]pyridin-4-yl)-5-(methylsulfonamido)picolinamide]
18 | 94 | CCOC(=O)c1cc(C(=O)N[C@]2(c3ccc(OC(F)(F)F)c(F)c3)CCOc3cccnc32)cc(C(=O)OCC)c1 [Example 192, (S)-diethyl 5-((4-(3-fluoro-4-(trifluoromethoxy)phenyl)-3,4-dihydro-2H-pyrano[3,2-b]pyridin-4-yl)carbamoyl) isophthalate]
19 | 99 | O=C(N[C@]1(c2ccc(OC(F)(F)F)cc2)CCOc2cccnc21)c1cccc2cnccc12 [Example 249, (S)-N-(4-(4-(trifluoromethoxy)phenyl)-3,4-dihydro-2H-pyrano[3,2-b]pyridin-4-yl)isoquinoline-5-carboxamide formate]
20 | 21 | COc1ccc(C(=O)N[C@]2(c3ccc(C(F)(F)F)cc3)CCOc3cccnc32)cc1 (single isomer, unassigned) [Example 5]
21 | 7 | COC(=O)c1cc2ccc(C(=O)N[C@]3(c4ccc(OC(F)(F)F)c(F)c4)CCOc4cccnc43)cc2n1C [Example 196, (S)-methyl 6-((4-(3-fluoro-4-(trifluoromethoxy)phenyl)-3,4-dihydro-2H-pyrano[3,2-b]pyridin-4-yl)carbamoyl)-1-methyl-1H-indole-2-carboxylate]
22 | 50 | O=C(N[C@]1(c2ccc(-c3ccc(F)cc3)cc2)CCOc2cccnc21)c1ccc(F)cc1 [Example 114, (S)-4-fluoro-N-(4-(4′-fluoro-[1,1′-biphenyl]-4-yl)-3,4-dihydro-2H-pyrano[3,2-b]pyridin-4-yl)benzamide]
23 | 10 | O=C(N[C@]1(c2ccc(OC(F)(F)F)cc2)CCOc2cccnc21)c1ccnc2[nH]ccc12 [Example 218, (S)-N-(4-(4-(trifluoromethoxy)phenyl)-3,4-dihydro-2H-pyrano[3,2-b]pyridin-4-yl)-1H-pyrrolo[2,3-b] pyridine-4-carboxamide formate]
